US12595251B2, “Amidines and amidine analogs for the treatment of bacterial infections and potentiation antibiotics” (GEORGIA STATE UNIVERSITY RESEARCH FOUNDATION, INC., priority 2018, dated 2026)
Converted amounts (≈) assume the structure as drawn.

Columns and labels:
M. smegmatis = assay: Antibacterial activity against M. smegmatis (MIC, OD600, 48 h); format: cell-based, Mycobacterium smegmatis; details: Mycolicibacterium smegmatis, MIC = 90% growth inhibition, 7H9 media, NA=no activity
MRSA [1] = assay: Sensitization of MRSA to erythromycin (sensitization fold from IC90); format: cell-based, Staphylococcus aureus; details: for SF (MRSA) at 6 μM: compound at 6 μM; for SF (MRSA) at 4 μM: compound at 4 μM; for SF (MRSA) at 12 μM: compound at 12 μM; for SF (MRSA) at 12 μM / SF (MRSA) at 25 μM: NA=no activity; for SF (MRSA) at 25 μM: compound at 25 μM
Protocol: MRSA bacteria were cultured in nutrient broth at 37° C. overnight prior to treatment. […] Bacterial density was measured based on OD600.

MRSA [2] = assay: MIC of compounds against MRSA (OD600, 48 h); format: cell-based; details: Staphylococcus aureus; for MIC: MIC = 90% growth inhibition, compound alone, 48 h; for inhibition at 12 µM: compound alone at 12 μM, NA=no activity, read-out: Growth inhibition of MRSA at 12 μM; for inhibition at 6 µM: read-out: Growth inhibition of MRSA at 6 μM, compound alone at 6 μM, NA=no activity
Protocol: Bacteria were then cultured with varying concentration of the compounds shown below for 48 hours, and then bacterial density was measured based on OD600. The minimum inhibitory concentration (MIC, 90% growth inhibition) was calculated for each compound, as shown in Table 4 (NA=no activity; --=not measured).

Q: With N=C(N)c1ccc(OCc2cccc(COc3ccc(C(=N)N)cc3)n2)cc1 [drawing 823] as the compound, how does the MIC (M. smegmatis) read?
A: Its MIC is 12 µM (≈ 4.51 µg/mL).

Q: For N=C(N)c1ccc(OCCCCCCOc2ccc(C(=N)N)cc2)cc1 [drawing 825], which MIC (M. smegmatis) is on record?
A: Its MIC is 6 µM (≈ 2.13 µg/mL).

Q: With Cc1cc(COc2ccc(C3=NCCN3)cc2)cc(COc2ccc(C3=NCCN3)cc2)c1 [drawing 826] as the compound, how does the MIC (M. smegmatis) read?
A: The MIC was 25 µM (≈ 11 µg/mL).

Q: With N=C(N)c1ccc(OCc2cc(COc3ccc(C(=N)N)cc3)cc(COc3ccc(C(=N)N)cc3)c2)cc1 [drawing 828] as the compound, how does the MIC (M. smegmatis) read?
A: The MIC was 3 to 6 µM (≈ 1.57 to 3.14 µg/mL).

Q: With Cc1cc(CCc2ccc(C(=N)N)cc2)cc(CCc2ccc(C(=N)N)cc2)c1 [drawing 829] as the compound, how does the MIC (M. smegmatis) read?
A: The MIC was 6 to 12 µM (≈ 2.31 to 4.61 µg/mL).

Q: With CC(C)NC(=N)c1ccc(OCc2cccc(COc3ccc(C(=N)NC(C)C)cc3)c2F)cc1 [drawing 830] as the compound, how does the MIC (M. smegmatis) read?
A: The MIC was 3 µM (≈ 1.43 µg/mL).

Q: CC(C)NC(=N)c1ccc(OCc2cccc(COc3ccc(C(=N)NC(C)C)cc3F)c2F)c(F)c1 [drawing 831] was tested. Which MIC (M. smegmatis) did it give?
A: Its MIC is 12 µM (≈ 6.15 µg/mL).

Q: What does the source list for Cc1cc(COc2ccc(C(=N)N)cc2)cc(COc2ccc(C(=N)N)cc2)c1 [drawing 834]?
A: SF (MRSA) at 6 μM (MRSA [1]): 32-fold at 6 μM; MIC (MRSA [2]): 25 µM

Q: With Cc1cc(COc2ccc(C(=N)NC(C)C)cc2)cc(COc2ccc(C(=N)NC(C)C)cc2)c1 [drawing 835] as the compound, how does the “SF (MRSA) at 4 μM” value (MRSA [1]) read?
A: The value was 32-fold at 4 μM.

Q: And the MIC (MRSA [2])?
A: The MIC was 25 µM.

Q: With COc1cc(C(=N)N)ccc1OCc1cc(C)cc(COc2ccc(C(=N)N)cc2OC)c1 [drawing 836] as the compound, how does the “SF (MRSA) at 6 μM” value (MRSA [1]) read?
A: Its value is 2-4 fold.

Q: What about the “SF (MRSA) at 12 μM” value (MRSA [1]) of the same compound?
A: The value was 8-16 fold.

Q: What about the MIC (MRSA [2]) of the same compound?
A: The MIC was 25 µM.

Q: What about the inhibition at 12 µM (MRSA [2]) of the same compound?
A: Its inhibition at 12 µM is 10%.

Q: Which “SF (MRSA) at 3 μM” value (MRSA [1]; compound at 3 μM) does the source give for Cc1cc(CCc2ccc(C(=N)N)cc2)cc(CCc2ccc(C(=N)N)cc2)c1 [drawing 838] here?
A: Its value is 16-fold at 3 μM.

Q: And the MIC (MRSA [2])?
A: Its MIC is 12 µM.

Q: CC(C)NC(=N)c1ccc(OCc2cccc(COc3ccc(C(=N)NC(C)C)cc3)c2F)cc1 [drawing 839] was tested. Which “SF (MRSA) at 4 μM” value (MRSA [1]) did it give?
A: The value was 16-fold at 4 μM.

Q: What about the MIC (MRSA [2]) of the same compound?
A: The MIC was 12.5 µM.

Q: Which results are given for CC(C)NC(=N)c1ccc(OCc2cccc(COc3ccc(C(=N)NC(C)C)cc3F)c2F)c(F)c1 [drawing 840]?
A: SF (MRSA) at 6 μM (MRSA [1]): 8 fold; SF (MRSA) at 12 μM (MRSA [1]): 8-16 fold; inhibition at 12 µM (MRSA [2]): 30%

Q: CCCNC(=N)c1ccc(COc2cc(C)cc(OCc3ccc(C(=N)NCCC)cc3)c2)cc1 [drawing 841] was tested. Which “SF (MRSA) at 12 μM” value (MRSA [1]) did it give?
A: Its value is 8 fold.

Q: And the “SF (MRSA) at 25 μM” value (MRSA [1])?
A: The value was 8-16 fold.

Q: And the inhibition at 25 µM (MRSA [2]; read-out: Growth inhibition of MRSA at 25 μM, compound alone at 25 μM, NA=no activity)?
A: The inhibition at 25 µM was 30%.

Q: Which results are given for Cc1cc(COc2ccc(C3=NCCCN3)cc2)cc(COc2ccc(C3=NCCCN3)cc2)c1 [drawing 842]?
A: SF (MRSA) at 12 μM (MRSA [1]): 4 fold; SF (MRSA) at 25 μM (MRSA [1]): 8 fold

Q: How did the MIC (MRSA [2]) turn out when COc1cc(C(=N)N)ccc1OCc1cc(COc2ccc(C(=N)N)cc2OC)cc(C(C)(C)C)c1 [drawing 843] was run?
A: Its MIC is 12 µM.

Q: CC(C)(C)c1cc(COc2ccc(C(=N)N)cc2F)cc(COc2ccc(C(=N)N)cc2F)c1 [drawing 844] was tested. Which inhibition at 6 µM (MRSA [2]) did it give?
A: Its inhibition at 6 µM is 60%.

Q: Which “SF (MRSA) at 12.5 μM” value (MRSA [1]; compound at 12.5 μM) does the source give for Cc1cc(COc2cccc(C(=N)N)c2)cc(COc2cccc(C(=N)N)c2)c1 [drawing 845] here?
A: Its value is 4-fold at 12.5 μM.

Q: And the MIC (MRSA [2])?
A: The MIC was 25 µM.

Q: What about the inhibition at 12.5 µM (MRSA [2]; compound alone at 12.5 μM, read-out: Growth inhibition of MRSA at 12.5 μM) of the same compound?
A: The inhibition at 12.5 µM was 30%.

Q: For Cc1cc(COc2ccc(C(=N)N)cc2F)cc(COc2ccc(C(=N)N)cc2F)c1 [drawing 846], which MIC (MRSA [2]) is on record?
A: The MIC was 12 µM.

Q: And the inhibition at 6 µM (MRSA [2])?
A: The inhibition at 6 µM was 20%.
